Reference: publication PMC7523345 (Investigational new drugs, 2018)

Assays:
Hes1 = Hes1 expression in peripheral blood; format: in vivo, human; details: after 2 weeks of dosing at 1.2 mg QD and 1.5 mg QD
[1] = system: human T-ALL xenograft models; details: single agent; nonclinical; cited from earlier work

For `Cc1cccc2c1NC(=O)[C@@H](NC(=O)[C@H](CCC(F)(F)F)[C@H](CCC(F)(F)F)C(N)=O)N=C2c1cccc(F)c1` [BMS-986115], the “Peak inhibition of geometric mean relative expression of Hes1” value (Hes1) is listed as > 80% and the “Efficacy in human T-ALL xenograft models” value [1] is listed as “effective as a single agent”.
